In the supplement of paper PMC10477900:
Structures can show the parent of a compound that is named as a salt.

Experiments:
HCT116 [1] = details: 72 h
Description: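 HCT116 control and MTA1-KO (CRISPR) HCT116 cells were seeded in 384-well plates (800 cells/well), treated 16 h later with 237 metabolism-related anticancer drugs at five doses (10 uM, 2 uM, 400 nM, 80 nM, 16 nM) for 72 h, two replicates; viability by CCK8. Values are % inhibition of viability relative to untreated cells, plus fitted IC50.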

HCT116 [2] = assay: viability inhibition vs untreated; higher = more cytotoxic; details: 72 h

Compound | IC50 (HCT116 [1]; genotype: MTA1-KO) [µM] | IC50 (HCT116 [1]; genotype: control) [µM] | viability inhibition (HCT116 [2]; genotype: MTA1-KO, 16 nM) [%] | viability inhibition (HCT116 [2]; genotype: MTA1-KO, 80 nM) [%] | viability inhibition (HCT116 [2]; genotype: MTA1-KO, 400 nM) [%] | viability inhibition (HCT116 [2]; genotype: MTA1-KO, 2000 nM) [%] | viability inhibition (HCT116 [2]; genotype: MTA1-KO, 10000 nM) [%] | viability inhibition (HCT116 [2]; genotype: control, 16 nM) [%] | viability inhibition (HCT116 [2]; genotype: control, 80 nM) [%] | viability inhibition (HCT116 [2]; genotype: control, 400 nM) [%] | viability inhibition (HCT116 [2]; genotype: control, 2000 nM) [%] | viability inhibition (HCT116 [2]; genotype: control, 10000 nM) [%]
CC(=O)O[C@H]1[C@H]2O[C@]23[C@@H]2CC[C@@H]4C[C@@H](O)CC[C@]4(C)[C@H]2CC[C@]3(C)[C@H]1c1ccc(=O)oc1 [Cinobufagin] | < 0.016 | 0.0795 | 51.8 | 51.6 | 84.4 | 88.9 | 92.1 | 19.9 | 58.1 | 96.5 | 96.5 | 94.8
CCC(C)(Oc1ccc(C2(c3ccc(OC(C)(CC)C(=O)O)cc3)CCCCC2)cc1)C(=O)O (centres undefined) [Clinofibrate] | > 10 | > 10 | 12.9 | 5.15 | 19.9 | 28 | 51.7 | -13.2 | -10 | -7.17 | -15.8 | 0.951
Nc1nc(Cl)nc2c1ncn2[C@@H]1O[C@H](CO)[C@@H](O)[C@@H]1F [Clofarabine] | 0.257 | 0.141 | -2.4 | 4.43 | 55.5 | 80.4 | 75.8 | -9.53 | -5 | 88.4 | 88.9 | 92.8
Clc1ccccc1C(c1ccccc1)(c1ccccc1)n1ccnc1 [Clotrimazole] | > 10 | > 10 | -16.8 | -16.8 | -15 | -23.3 | -4.67 | 0.201 | -0.602 | -4.37 | -8.31 | 2.92
CC(=O)OC(C)(C)/C=C/C(=O)[C@](C)(O)[C@H]1[C@H](O)C[C@@]2(C)[C@@H]3CC=C4[C@@H](C[C@H](O)C(=O)C4(C)C)[C@]3(C)C(=O)C[C@]12C [Cucurbitacin B] | 0.34 | 4.56 | -3.8 | -16.3 | 58.7 | 66.6 | 79.9 | -19.7 | -9.21 | 33.3 | 49.7 | 58.9
COc1cc(/C=C/C(=O)CC(=O)/C=C/c2ccc(O)c(OC)c2)ccc1O [Curcumin] | 7.8 | 7.85 | -19.2 | -16.2 | -19.6 | -14.2 | 61.7 | -1.96 | 7.36 | -4.61 | 4.83 | 60.8
Nc1cccc(S(=O)(=O)N2CCCN(S(=O)(=O)c3ccc4c(c3)OCCO4)CC2)c1 [DASA58] | 6.95 | > 10 | -0.728 | -19.4 | -15.8 | -12.1 | 75 | -13.2 | -25.9 | -13.7 | -17.4 | -6.72
Cc1ccc(NC(=O)Nc2cc(-c3ccccc3-c3nn[nH]n3)ccc2N(CC(C)C)CC(C)C)cc1 [DO-IN-2] | > 10 | > 10 | -2.66 | 13.6 | 7.91 | 10.9 | -6.41 | 4.06 | 0.568 | -3.13 | -1.86 | 41.6
COc1ccc(Cc2cnc(N)nc2N)cc1OC [Diaveridine] | > 10 | > 10 | 9.72 | -12.4 | -14.2 | -12.8 | 8.55 | 7.02 | -9.3 | -5.19 | -12.6 | 10.2
CC1=NS(=O)(=O)c2cc(Cl)ccc2N1 [Diazoxide] | > 10 | > 10 | 7.55 | 5.32 | 16.2 | 16 | 35.1 | 3.13 | 23.2 | 0.951 | 4.98 | 3.64
NS(=O)(=O)c1cc(Cl)c(Cl)c(S(N)(=O)=O)c1 [Dichlorphenamide] | > 10 | > 10 | 6.61 | -0.189 | -0.404 | -3.85 | 16.5 | -20.7 | -6.03 | -16.5 | -12.6 | -18.3
O=c1oc2ccccc2c(O)c1Cc1c(O)c2ccccc2oc1=O [Dicumarol] | 0.444 | 0.54 | 4.75 | 8.83 | 21.4 | 67.8 | 64.3 | 10.4 | 23.6 | 22.5 | 66.6 | 65.9
CCN(CC)C(=S)SSC(=S)N(CC)CC [Disulfiram] | > 10 | > 10 | -26.6 | -25.2 | -25.3 | -20.1 | -18.3 | -6.96 | -11.2 | -6.9 | -8.44 | -2.88
c1cc(-c2cnn3cc(-c4ccc(OCCN5CCCCC5)cc4)cnc23)ccn1 [Dorsomorphin dihydrochloride] | > 10 | 8.54 | -1.27 | -9.68 | 3.35 | 4.71 | 43.6 | -2.17 | -2.84 | -1.4 | 7.12 | 55.1
c1cc(-c2cnn3cc(-c4ccc(OCCN5CCCCC5)cc4)cnc23)ccn1 [Dorsomorphin] | > 10 | > 10 | 1.25 | -13.4 | -12.4 | -11.7 | -1.25 | 19.5 | 29.9 | 18.4 | 20.9 | 19.6
CCN[C@H]1C[C@H](C)S(=O)(=O)c2sc(S(N)(=O)=O)cc21 [Dorzolamide hydrochloride] | > 10 | > 10 | -14.8 | -12.5 | -7.44 | -8.97 | -17.4 | -5.26 | -2.58 | -9.91 | -10 | -10.3
CC(C)(CCCCCC(O)CCCCCC(C)(C)C(=O)O)C(=O)O [ETC1002] | > 10 | > 10 | 2.14 | -10.3 | -6.64 | -17.1 | -9.91 | 10.7 | -0.834 | -5.92 | -6.48 | -5.51
NCCCC(N)(C(=O)O)C(F)F (centres undefined) [Eflornithine hydrochloride Monohydrate] | > 10 | 9.47 | -16.1 | -27.6 | -24 | -21.9 | -20.4 | 11.3 | 1.76 | -3.16 | 0.852 | 61.6
O=c1oc2c(O)c(O)cc3c(=O)oc4c(O)c(O)cc1c4c23 [Ellagic acid] | > 10 | > 10 | -9.03 | -12.1 | -9.22 | -2.14 | -6.22 | -17.2 | -19 | -17.4 | -13.6 | -11.3

Compound | IC50 (HCT116 [1]; genotype: MTA1-KO) [µM] | IC50 (HCT116 [1]; genotype: control) [µM] | viability inhibition (HCT116 [2]; genotype: MTA1-KO, 16 nM) [%] | viability inhibition (HCT116 [2]; genotype: MTA1-KO, 80 nM) [%] | viability inhibition (HCT116 [2]; genotype: MTA1-KO, 400 nM) [%] | viability inhibition (HCT116 [2]; genotype: MTA1-KO, 2000 nM) [%] | viability inhibition (HCT116 [2]; genotype: MTA1-KO, 10000 nM) [%] | viability inhibition (HCT116 [2]; genotype: control, 16 nM) [%] | viability inhibition (HCT116 [2]; genotype: control, 80 nM) [%] | viability inhibition (HCT116 [2]; genotype: control, 400 nM) [%] | viability inhibition (HCT116 [2]; genotype: control, 2000 nM) [%] | viability inhibition (HCT116 [2]; genotype: control, 10000 nM) [%]
CC(C)(O)CNc1nc(Nc2ccnc(C(F)(F)F)c2)nc(-c2cccc(C(F)(F)F)n2)n1 [Enasidenib] | > 10 | > 10 | -26 | -20.5 | -17.3 | -19.3 | -24.8 | -12.3 | -12.7 | -4.75 | -20.9 | -15.6
Cc1cc(-n2cccc2)c(S(C)(=O)=O)cc1C(=O)N=C(N)N [Eniporide] | 6.22 | > 10 | -5.44 | 3.61 | 2.87 | 16.5 | 60.9 | 1.06 | -2.91 | -4.47 | 3.58 | 8.84
NS(=O)(=O)NCCNc1nonc1C(=Nc1ccc(F)c(Br)c1)NO [Epacadostat] | > 10 | > 10 | 17.9 | -8.61 | -7.79 | -6.79 | 6.59 | -9.21 | -6.3 | -14.3 | -5.67 | -5.46
COc1ccc2[nH]c([S@@+]([O-])Cc3ncc(C)c(OC)c3C)nc2c1 [Esomeprazole Magnesium] | > 10 | > 10 | 2.7 | 2.87 | 3.11 | 1.54 | 3.86 | 16.3 | 11.1 | 18 | 11.9 | 21.2
COc1ccc2[nH]c([S@@+]([O-])Cc3ncc(C)c(OC)c3C)nc2c1 [Esomeprazole Sodium] | > 10 | > 10 | 3.92 | 2.7 | 7.98 | 6.88 | 10.1 | 27 | 8.16 | -3.32 | 4.21 | 12
CO[C@H]1C[C@@H]2CC[C@@H](C)[C@@](O)(O2)C(=O)C(=O)N2CCCC[C@H]2C(=O)O[C@H]([C@H](C)C[C@@H]2CC[C@@H](OCCO)[C@H](OC)C2)CC(=O)[C@H](C)/C=C(\C)[C@@H](O)[C@@H](OC)C(=O)[C@H](C)C[C@H](C)/C=C/C=C/C=C/1C [Everolimus] | > 10 | > 10 | -19 | -24.2 | -24.2 | -22.2 | -6.06 | 5.54 | 0.73 | 1.76 | 3.41 | 25.7
O=C1[C@H](CC[C@H](O)c2ccc(F)cc2)[C@@H](c2ccc(O)cc2)N1c1ccc(F)cc1 [Ezetimibe] | > 10 | > 10 | -4.11 | 3.58 | 10.6 | 5.65 | 0.125 | -7.56 | 2.58 | 22 | 25.8 | 31.9
N#CC(C#N)=NNc1ccc(OC(F)(F)F)cc1 [FCCP] | 8.13 | 9.04 | -7.63 | 1.48 | -17.8 | -8.82 | 87.2 | -7.79 | -5.69 | -13.2 | -7.17 | 67
O=C(O)CCC(=O)c1ccc(-c2ccccc2)cc1 [Fenbufen] | > 10 | > 10 | -12.7 | -18.9 | -14.3 | 3.54 | -0.929 | 3.15 | 8.7 | 7.49 | 6.47 | 10.4
CC1=C(/C=C/C(C)=C/C=C/C(C)=C/C(=O)Nc2ccc(O)cc2)C(C)(C)CCC1 [Fenretinide] | > 10 | > 10 | -13 | -18.5 | -15 | -14.4 | -2.3 | 23.7 | 2.62 | 1.09 | 9.79 | 15.3
O=c1[nH]cc(F)c(=O)[nH]1 [Fluorouracil] | 6.47 | 3.81 | -23.1 | -26 | -27.2 | 1.88 | 53.9 | -8.89 | -1.82 | 8.13 | 22.2 | 83.9
COc1ccc([C@@H]2OC[C@H]3[C@@H]2CO[C@@H]3c2ccc(O[C@@H]3O[C@H](CO)[C@@H](O)[C@H](O)[C@H]3O)c(OC)c2)cc1OC [Forsythin] | > 10 | > 10 | 5.1 | -3.89 | -0.379 | 2.87 | 27.7 | 8.22 | 24 | 15.4 | -3.75 | 24.5
NC(=O)N/N=C/c1ccc([N+](=O)[O-])o1 [Furacilin] | > 10 | > 10 | -10.7 | -2.24 | -4.15 | 1.42 | 5.25 | 6.06 | 11.2 | 22.1 | 21.4 | -6.53
CC1(C)OCCn2c1nc1c(N3CCOCC3)nc(-c3cnc(N)nc3)nc12 [GDC0084] | 0.327 | 0.356 | -2.94 | 9.67 | 48 | 77.1 | 83.3 | 7.86 | 5.85 | 42.9 | 78.2 | 76.1
CN(C)C1CCN(C(=O)c2ccc(NC(=O)Nc3ccc(-c4nc(N5CCOCC5)nc(N5CCOCC5)n4)cc3)cc2)CC1 [Gedatolisib] | 0.187 | 0.305 | -5.92 | 17.3 | 63.7 | 80.1 | 82.8 | 19.9 | 26.7 | 68.6 | 88.3 | 103
O=c1cc(O)c(Cl)c[nH]1 [Gimeracil] | > 10 | > 10 | -16.5 | -10.4 | -7.69 | -8.52 | 5.58 | -1.24 | -1.82 | -11.8 | -5.96 | -7.24
N[C@@H](CCC(=O)N[C@@H](CS)C(=O)NCC(=O)O)C(=O)O [Glutathione] | > 10 | > 10 | -21.2 | -27.6 | -21.1 | -16.6 | -21.7 | 8.47 | 0.941 | -7.27 | 8.72 | 5.08
Cc1nc(Nc2cnn(C3CCNCC3)c2)nc2c1N(C)C(=O)c1cc3ccccc3cc1N2C [HTH-01-015] | 7.99 | > 10 | -1.49 | 5.48 | -1.32 | 5.37 | 62.5 | 2.33 | 10.7 | 23.3 | 17.9 | 40.7
